Results on 20 molecules are retold here after patent US10399988B2, “4-aminopyrazolo[3,4-d]pyrimidinylazabicyclo derivatives and pharmaceutical composition comprising the same” (Daewoong Pharmaceutical Co., Ltd., priority 2016, dated 2019).

One assay has as its target T1, ITK (Homo sapiens, UniProt Q08881).
T1 construct: purchased Promega Corporation
T1 sequence (Q08881 1-620): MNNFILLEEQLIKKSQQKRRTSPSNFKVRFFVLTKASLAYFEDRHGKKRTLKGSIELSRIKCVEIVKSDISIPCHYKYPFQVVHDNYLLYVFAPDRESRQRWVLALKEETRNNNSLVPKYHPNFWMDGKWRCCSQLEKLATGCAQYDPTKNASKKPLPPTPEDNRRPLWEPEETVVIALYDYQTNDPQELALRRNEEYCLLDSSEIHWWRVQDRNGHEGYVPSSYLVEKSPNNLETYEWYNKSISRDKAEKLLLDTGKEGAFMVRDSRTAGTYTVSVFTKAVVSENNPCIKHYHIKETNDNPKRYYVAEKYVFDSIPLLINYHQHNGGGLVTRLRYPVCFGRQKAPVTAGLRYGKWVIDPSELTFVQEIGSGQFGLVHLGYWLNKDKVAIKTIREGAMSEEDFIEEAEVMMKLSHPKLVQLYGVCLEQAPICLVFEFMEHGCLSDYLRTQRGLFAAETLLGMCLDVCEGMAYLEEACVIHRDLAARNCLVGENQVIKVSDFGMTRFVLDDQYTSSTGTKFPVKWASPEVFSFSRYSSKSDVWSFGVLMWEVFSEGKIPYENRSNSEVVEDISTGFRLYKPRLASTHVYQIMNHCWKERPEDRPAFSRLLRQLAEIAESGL
Description: Inhibitory activity against ITK (ADP-Glo + ITK Kinase enzyme system kit); selectivity BTK vs. ITK. Conditions: for IC50: ITK enzyme 0.4 ng/uL, ATP 25 uM, luminescence, duplicate; for Selectivity (based on IC50): selectivity for the inhibitory activity of BTK vs. ITK, Equation 1. In kind it is biochemical. On the technique in general: ADP-Glo turns the ADP formed in a reaction into a luminescent signal.

The target in a further assay is BTK (Homo sapiens, UniProt Q06187). Description: Inhibitory activity against BTK (ADP-Glo + BTK Kinase enzyme system kit).
BTK, sequence (Q06187 whole entry): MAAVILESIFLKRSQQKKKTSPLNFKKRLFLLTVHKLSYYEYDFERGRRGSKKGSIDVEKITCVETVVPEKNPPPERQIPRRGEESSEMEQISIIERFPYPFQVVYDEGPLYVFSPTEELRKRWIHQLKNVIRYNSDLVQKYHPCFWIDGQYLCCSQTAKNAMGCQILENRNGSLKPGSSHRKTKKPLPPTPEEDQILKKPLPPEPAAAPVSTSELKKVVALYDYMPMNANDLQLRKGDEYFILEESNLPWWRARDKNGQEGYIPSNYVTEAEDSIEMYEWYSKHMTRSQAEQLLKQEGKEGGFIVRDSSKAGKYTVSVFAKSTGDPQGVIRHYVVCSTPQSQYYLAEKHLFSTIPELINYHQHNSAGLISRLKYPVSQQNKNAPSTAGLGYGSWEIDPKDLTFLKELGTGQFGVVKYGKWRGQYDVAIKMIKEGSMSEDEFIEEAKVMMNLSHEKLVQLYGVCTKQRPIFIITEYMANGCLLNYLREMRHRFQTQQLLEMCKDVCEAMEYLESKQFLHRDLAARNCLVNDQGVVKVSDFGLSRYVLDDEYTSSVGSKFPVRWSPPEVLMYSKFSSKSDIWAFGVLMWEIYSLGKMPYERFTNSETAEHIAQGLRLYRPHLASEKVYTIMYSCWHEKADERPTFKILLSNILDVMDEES

One may read the IC50 as the point on the concentration scale where inhibition reaches its midpoint. `C=CC(=O)N1C[C@@H]2C[C@H]1C[C@H]2n1nc(-c2ccc(Oc3ccccc3)cc2)c2c(N)ncnc21` [Ex. 14, 1-((1S,4S,5R)-5-(4-amino-3-(4-phenoxyphenyl)-1H-pyrazolo[3,4-d]pyrimidin-1-yl)-2-azabicyclo[2.2.1]heptan-2-yl)prop-2-en-1-one]: at ITK, the IC50 was more than 1000 nM and the “Selectivity (based on IC50)” value is listed as more than 384.6. Moreover, on BTK, the IC50 is 2.6 nM.

On to `N#CC(=CC1CC1)C(=O)N1C[C@@H]2C[C@@H]1[C@@H](n1nc(-c3ccc(C(=O)Nc4cc(F)ccn4)cc3F)c3c(N)ncnc31)C2` [Ex. 83, 4-(4-amino-1-((1R,4R,6S)-2-(2-cyano-3-cyclopropylacryloyl)-2-azabicyclo[2.2.1]heptan-6-yl)-1H-pyrazolo[3,4-d]pyrimidin-3-yl)-3-fluoro-N-(4-fluoropyridin-2-yl)benzamide], for which, on ITK, the IC50 stood at 229 nM and the “Selectivity (based on IC50)” value was found to be 81.7. Moreover, the IC50 on BTK was 2.8 nM.

Take `C=CC(=O)N1CC2CCC1C(n1nc(-c3ccc(Oc4ccccc4)cc3)c3c(N)ncnc31)C2` (stereo not drawn) [Ex. 59, 1-(6-(4-amino-3-(4-phenoxyphenyl)-1H-pyrazolo[3,4-d]pyrimidin-1-yl)-2-azabicyclo[2.2.2]octan-2-yl)prop-2-en-1-one]: on ITK, the IC50 is 110 nM and the “Selectivity (based on IC50)” value amounted to 39.1. In addition, on BTK, the 50% inhibitory concentration (IC50) is 2.8 nM.

On to `C=CC(=O)N1CC2CC1CC2n1nc(-c2ccc(Oc3ccccc3)cc2)c2c(N)ncnc21` (stereo not drawn) [Ex. 12, 1-(5-(4-amino-3-(4-phenoxyphenyl)-1H-pyrazolo[3,4-d]pyrimidin-1-yl)-2-azabicyclo[2.2.1]heptan-2-yl)prop-2-en-1-one], for which, on ITK, the 50% inhibitory concentration (IC50) was more than 1000 nM and the “Selectivity (based on IC50)” value was more than 303.3. Further, the IC50 at BTK is 3.3 nM.

`C=CC(=O)N1CC2CC1C(n1nc(-c3ccc(Oc4cccc(F)c4)cc3)c3c(N)ncnc31)C2` (stereo not drawn) [Ex. 34, 1-(6-(4-amino-3-(4-(3-fluorophenoxy)phenyl)-1H-pyrazolo[3,4-d]pyrimidin-1-yl)-2-azabicyclo[2.2.1]heptan-2-yl)prop-2-en-1-one]: on ITK, the IC50 is 308 nM and the “Selectivity (based on IC50)” value turned out to be 69.9. Also, at BTK, the IC50 stood at 4.4 nM.

For `C=CC(=O)N1CC2CC1C(n1nc(-c3ccc(Oc4cccc(N(C)C)c4)cc3)c3c(N)ncnc31)C2` (stereo not drawn) [Ex. 42, 1-(6-(4-amino-3-(4-(3-(dimethylamino)phenoxy)phenyl)-1H-pyrazolo[3,4-d]pyrimidin-1-yl)-2-azabicyclo[2.2.1]heptan-2-yl)prop-2-en-1-one], on ITK, the IC50 is more than 500 nM and the “Selectivity (based on IC50)” value is listed as more than 147. Further, the IC50 at BTK was 3.4 nM.

As for `C=CC(=O)N1CC2CC1C(n1nc(-c3ccc(Sc4ccccc4)cc3)c3c(N)ncnc31)C2` (stereo not drawn) [Ex. 33, 1-(6-(4-amino-3-(4-(phenylthio)phenyl)-1H-pyrazolo[3,4-d]pyrimidin-1-yl)-2-azabicyclo[2.2.1]heptan-2-yl)prop-2-en-1-one], on ITK, the IC50 is more than 1000 nM and the “Selectivity (based on IC50)” value is more than 303.0. At BTK, the IC50 amounted to 3.3 nM.

Take `C=CC(=O)N1CC2CC1C(n1nc(-c3ccc(S(=O)(=O)Nc4ccccc4)cc3)c3c(N)ncnc31)C2` (stereo not drawn) [Ex. 54, 4-(1-(2-acryloyl-2-azabicyclo[2.2.1]heptan-6-yl)-4-amino-1H-pyrazolo[3,4-d]pyrimidin-3-yl)-N-phenylbenzenesulfonamide]: the IC50 at ITK was more than 1000 nM; on BTK, 2.2 nM. In addition, the “Selectivity (based on IC50)” value at ITK is recorded as more than 454.5.

For `C=CC(=O)N1C[C@@H]2C[C@H]1[C@@H](n1nc(-c3ccc(C(=O)Nc4cc(F)ccn4)cc3)c3c(N)ncnc31)C2` [Ex. 72, 4-(1-((1S,4R,6S)-2-acryloyl-2-azabicyclo[2.2.1]heptan-6-yl)-4-amino-1H-pyrazolo[3,4-d]pyrimidin-3-yl)-N-(4-fluoropyridin-2-yl)benzamide], on ITK, the IC50 is 47.9 nM and the “Selectivity (based on IC50)” value was 31.9. In addition, the IC50 on BTK was found to be 1.5 nM.

For `C=CC(=O)N1CC2CC1C(n1nc(-c3ccc(Oc4cccc(OC)c4)cc3)c3c(N)ncnc31)C2` (stereo not drawn) [Ex. 41, 1-(6-(4-amino-3-(4-(3-methoxyphenoxy)phenyl)-1H-pyrazolo[3,4-d]pyrimidin-1-yl)-2-azabicyclo[2.2.1]heptan-2-yl)prop-2-en-1-one], the figures for the IC50 at ITK and on BTK were more than 1000 nM and 4.5 nM, respectively. For the same molecule, the “Selectivity (based on IC50)” value at ITK is given as more than 222.2.

As for `C=CC(=O)N1C[C@@H]2C[C@H]1[C@@H](n1nc(-c3ccc(C(=O)Nc4ccccn4)cc3OC)c3c(N)ncnc31)C2` [Ex. 81, 4-(1-((1S,4R,6S)-2-acryloyl-2-azabicyclo[2.2.1]heptan-6-yl)-4-amino-1H-pyrazolo[3,4-d]pyrimidin-3-yl)-3-methoxy-N-(pyridin-2-yl)benzamide], the IC50 on ITK was more than 200 nM; on BTK, 1 nM. For the same molecule, on ITK, the “Selectivity (based on IC50)” value is more than 200.

As to `C=CC(=O)N1CC2CC1C(n1nc(-c3ccc(C(=O)Nc4cnccn4)cc3)c3c(N)ncnc31)C2` (stereo not drawn) [Ex. 53, 4-(1-(2-acryloyl-2-azabicyclo[2.2.1]heptan-6-yl)-4-amino-1H-pyrazolo[3,4-d]pyrimidin-3-yl)-N-(pyrazin-2-yl)benzamide], at ITK, the 50% inhibitory concentration (IC50) was more than 1000 nM and the “Selectivity (based on IC50)” value is more than 370.3. For the same molecule, the IC50 at BTK worked out at 2.7 nM.

As for `C=CC(=O)N1CC2CC1C(n1nc(-c3ccc(C(=O)Nc4cc(C)ccn4)cc3)c3c(N)ncnc31)C2` (stereo not drawn) [Ex. 68, 4-(1-(2-acryloyl-2-azabicyclo[2.2.1]heptan-6-yl)-4-amino-1H-pyrazolo[3,4-d]pyrimidin-3-yl)-N-(4-methylpyridin-2-yl)benzamide], at ITK, the IC50 stood at 176 nM and the “Selectivity (based on IC50)” value was found to be 73.1. Moreover, on BTK, the IC50 was found to be 2.4 nM.

For the molecule `C#CC(=O)N1CC2CC1C(n1nc(-c3cccc(Oc4ccccc4)c3)c3c(N)ncnc31)C2` (stereo not drawn) [Ex. 15, 1-(6-(4-amino-3-(3-phenoxyphenyl)-1H-pyrazolo[3,4-d]pyrimidin-1-yl)-2-azabicyclo[2.2.1]heptan-2-yl)prop-2-yn-1-one], the IC50 was 123 nM on ITK and 2.1 nM on BTK. For the same molecule, the “Selectivity (based on IC50)” value at ITK came to 58.3.

For `C#CC(=O)N1CC2CC1C(n1nc(-c3ccc(Oc4ccccc4)cc3)c3c(N)ncnc31)C2` (stereo not drawn) [Ex. 2, 1-(6-(4-amino-3-(4-phenoxyphenyl)-1H-pyrazolo[3,4-d]pyrimidin-1-yl)-2-azabicyclo[2.2.1]heptan-2-yl)prop-2-yn-1-one], at ITK, the IC50 was determined as 26.3 nM and the “Selectivity (based on IC50)” value is given as 32.9. For the same molecule, at BTK, the IC50 amounted to 0.8 nM.

Consider `Nc1ncnc2c1c(-c1ccc(Oc3ccccc3)cc1)nn2C1CC2CC1N(C(=O)/C=C/CN1CCCCC1)C2` (stereo not drawn) [Ex. 63, (E)-1-(6-(4-amino-3-(4-phenoxyphenyl)-1H-pyrazolo[3,4-d]pyrimidin-1-yl)-2-azabicyclo[2.2.1]heptan-2-yl)-4-(piperidin-1-yl)but-2-en-1-one], for which, on ITK, the IC50 was more than 500 nM and the “Selectivity (based on IC50)” value was more than 333.3. Also, at BTK, the IC50 came to 1.5 nM.

Regarding `C=CC(=O)N1CC2CC1C(n1nc(-c3ccc(Oc4cccc(C(F)(F)F)c4)cc3)c3c(N)ncnc31)C2` (stereo not drawn) [Ex. 43, 1-(6-(4-amino-3-(4-(3-(trifluoromethyl)phenoxy)phenyl)-1H-pyrazolo[3,4-d]pyrimidin-1-yl)-2-azabicyclo[2.2.1]heptan-2-yl)prop-2-en-1-one], on ITK, the IC50 turned out to be 268 nM and the “Selectivity (based on IC50)” value came out at 86.4. In addition, the IC50 on BTK was 3.1 nM.

On to `C=CC(=O)N1CC2CC1C(n1nc(-c3ccc(C(=O)Nc4ccccn4)cc3F)c3c(N)ncnc31)C2` (stereo not drawn) [Ex. 64, 4-(1-(2-acryloyl-2-azabicyclo[2.2.1]heptan-6-yl)-4-amino-1H-pyrazolo[3,4-d]pyrimidin-3-yl)-3-fluoro-N-(pyridin-2-yl)benzamide], for which the IC50 on ITK amounted to 71.5 nM; at BTK, 1.6 nM. Also, the “Selectivity (based on IC50)” value at ITK was found to be 44.7.

With `C=CC(=O)N1CC2CC1C(n1nc(-c3ccc(C(=O)Nc4cc(C#N)ccn4)cc3)c3c(N)ncnc31)C2` (stereo not drawn) [Ex. 71, 4-(1-(2-acryloyl-2-azabicyclo[2.2.1]heptan-6-yl)-4-amino-1H-pyrazolo[3,4-d]pyrimidin-3-yl)-N-(4-cyanopyridin-2-yl)benzamide], on ITK, the IC50 worked out at 133 nM and the “Selectivity (based on IC50)” value worked out at 147.7. Further, on BTK, the IC50 was 0.9 nM.

Turning to `N#CC(=CC1CC1)C(=O)N1C[C@H]2CC(n3nc(-c4ccc(C(=O)Nc5ccccn5)cc4)c4c(N)ncnc43)[C@H]1C2` (stereo partly drawn) [Ex. 75, 4-(4-amino-1-((1R,4R)-2-(2-cyano-3-cyclopropylacryloyl)-2-azabicyclo[2.2.1]heptan-6-yl)-1H-pyrazolo[3,4-d]pyrimidin-3-yl)-N-(pyridin-2-yl)benzamide], on ITK, the IC50 was found to be 305 nM and the “Selectivity (based on IC50)” value was 76.2. Further, the IC50 at BTK was determined as 4 nM.
